Test results as given in US20160281050A1, “METHODS FOR TREATING A CULTURE OF HAEMATOCOCCUS PLUVIALIS FOR CONTAMINATION USING SALT AND HYDROGEN PEROXIDE” (HELIAE DEVELOPMENT LLC, priority 2015, published 2016).

Test system: Haematococcus pluvialis (Strain 2)
Test: % cell lysis, culture dry weight and % carotenoid by UV method in 230 L reactors, salt treatment (Example 12)
Type: cell-based
Conditions: for Culture Dry Weight in 230L reactors: NaCl 2 ppt (1st 2 ppt column)
Procedure: This test was done side by side in flasks (0.1 L) and in reactors located in a greenhouse operating in conditions: reactor volume of 230 L; Daily PAR of 20 mol m^−2 d^−1; pH (not measured); and paddlewheel speed of 21 RPM. […] The flask cultures were mixed by shaking at 140 rpm and received 300-400 μmol/m^2 s of photosynthetically active radiation (PAR) in 12 hour light cycles and constant supply of 2.5% CO2. The motility of the culture was monitored by visual observation under a microscope. […] Nine 230 L reactors were also seeded with culture from bioreactor #2410 on the same day as the flasks and brought to 2 ppt concentration of salt. Once motility of the cells was reduced to <10% (day 3 of culture for flasks and day 2 for 230 L reactors) the level of salt was elevated to a point between 4-18 ppt and compared to the culture in two reactors remaining at 2 ppt salt. Flasks and 230 L reactors were monitored for percentage of cell lysis via visual observation under a microscope, culture dry weight (biomass accumulation in g/L), and percentage of chytrid infection via visual observation under a microscope. Carotenoid production, a proxy for determining astaxanthin, was quantified every other day of culture in the 230 L reactors using the UV method.

## [Cl-].[Na+] [NaCl, sodium chloride]
4 ppt, 2 d
  % Cell Lysis in 230L reactors: 1.67%
4 ppt, 3 d
  % Cell Lysis in 230L reactors: 0.00%
4 ppt, 4 d
  % Cell Lysis in 230L reactors: 0.00%
4 ppt, 5 d
  % Cell Lysis in 230L reactors: 3.33%
4 ppt, 6 d
  % Cell Lysis in 230L reactors: 0.00%
4 ppt, 7 d
  % Cell Lysis in 230L reactors: 30.00%
4 ppt, 8 d
  % Cell Lysis in 230L reactors: 23.33%
4 ppt, 9 d
  % Cell Lysis in 230L reactors: 13.33%
4 ppt, 10 d
  % Cell Lysis in 230L reactors: 11.67%
4 ppt, 11 d
  % Cell Lysis in 230L reactors: 5.00%
4 ppt, 12 d
  % Cell Lysis in 230L reactors: 6.67%
5 ppt, 2 d
  % Cell Lysis in 230L reactors: 3.18%
5 ppt, 3 d
  % Cell Lysis in 230L reactors: 5.00%
5 ppt, 4 d
  % Cell Lysis in 230L reactors: 3.33%
5 ppt, 5 d
  % Cell Lysis in 230L reactors: 1.67%
5 ppt, 6 d
  % Cell Lysis in 230L reactors: 21.67%
5 ppt, 7 d
  % Cell Lysis in 230L reactors: 10.00%
5 ppt, 8 d
  % Cell Lysis in 230L reactors: 1.67%
5 ppt, 9 d
  % Cell Lysis in 230L reactors: 5.00%
5 ppt, 10 d
  % Cell Lysis in 230L reactors: 5.00%
5 ppt, 11 d
  % Cell Lysis in 230L reactors: 8.33%
5 ppt, 12 d
  % Cell Lysis in 230L reactors: 3.33%
6 ppt, 2 d
  % Cell Lysis in 230L reactors: 0.00%
6 ppt, 3 d
  % Cell Lysis in 230L reactors: 0.00%
6 ppt, 4 d
  % Cell Lysis in 230L reactors: 8.33%
6 ppt, 5 d
  % Cell Lysis in 230L reactors: 0.00%
6 ppt, 6 d
  % Cell Lysis in 230L reactors: 13.33%
6 ppt, 7 d
  % Cell Lysis in 230L reactors: 18.33%
6 ppt, 8 d
  % Cell Lysis in 230L reactors: 1.67%
6 ppt, 9 d
  % Cell Lysis in 230L reactors: 6.67%
6 ppt, 10 d
  % Cell Lysis in 230L reactors: 1.67%
6 ppt, 11 d
  % Cell Lysis in 230L reactors: 6.67%
6 ppt, 12 d
  % Cell Lysis in 230L reactors: 5.00%
7 ppt, 2 d
  % Cell Lysis in 230L reactors: 0.00%
7 ppt, 3 d
  % Cell Lysis in 230L reactors: 0.00%
7 ppt, 4 d
  % Cell Lysis in 230L reactors: 3.33%
7 ppt, 5 d
  % Cell Lysis in 230L reactors: 1.67%
7 ppt, 6 d
  % Cell Lysis in 230L reactors: 18.33%
7 ppt, 7 d
  % Cell Lysis in 230L reactors: 8.33%
7 ppt, 8 d
  % Cell Lysis in 230L reactors: 1.67%
7 ppt, 9 d
  % Cell Lysis in 230L reactors: 6.67%
7 ppt, 10 d
  % Cell Lysis in 230L reactors: 6.67%
7 ppt, 11 d
  % Cell Lysis in 230L reactors: 11.67%
7 ppt, 12 d
  % Cell Lysis in 230L reactors: 5.00%
8 ppt, 2 d
  % Cell Lysis in 230L reactors: 3.18%
8 ppt, 3 d
  % Cell Lysis in 230L reactors: 3.33%
8 ppt, 4 d
  % Cell Lysis in 230L reactors: 0.00%
8 ppt, 5 d
  % Cell Lysis in 230L reactors: 3.33%
8 ppt, 6 d
  % Cell Lysis in 230L reactors: 16.67%
8 ppt, 7 d
  % Cell Lysis in 230L reactors: 5.00%
8 ppt, 8 d
  % Cell Lysis in 230L reactors: 0.00%
8 ppt, 9 d
  % Cell Lysis in 230L reactors: 6.67%
8 ppt, 10 d
  % Cell Lysis in 230L reactors: 15.00%
8 ppt, 11 d
  % Cell Lysis in 230L reactors: 11.67%
8 ppt, 12 d
  % Cell Lysis in 230L reactors: 3.33%
10 ppt, 2 d
  % Cell Lysis in 230L reactors: 0.00%
10 ppt, 3 d
  % Cell Lysis in 230L reactors: 5.00%
10 ppt, 4 d
  % Cell Lysis in 230L reactors: 6.67%
10 ppt, 5 d
  % Cell Lysis in 230L reactors: 36.67%
10 ppt, 6 d
  % Cell Lysis in 230L reactors: 31.67%
10 ppt, 7 d
  % Cell Lysis in 230L reactors: 3.33%
10 ppt, 8 d
  % Cell Lysis in 230L reactors: 0.00%
10 ppt, 9 d
  % Cell Lysis in 230L reactors: 5.00%
10 ppt, 10 d
  % Cell Lysis in 230L reactors: 3.33%
10 ppt, 11 d
  % Cell Lysis in 230L reactors: 6.67%
10 ppt, 12 d
  % Cell Lysis in 230L reactors: 5.00%
18 ppt, 2 d
  % Cell Lysis in 230L reactors: 0.00%
18 ppt, 3 d
  % Cell Lysis in 230L reactors: 3.33%
18 ppt, 4 d
  % Cell Lysis in 230L reactors: 13.33%
18 ppt, 5 d
  % Cell Lysis in 230L reactors: 5.00%
18 ppt, 6 d
  % Cell Lysis in 230L reactors: 26.67%
18 ppt, 7 d
  % Cell Lysis in 230L reactors: 20.00%
18 ppt, 8 d
  % Cell Lysis in 230L reactors: 1.67%
18 ppt, 9 d
  % Cell Lysis in 230L reactors: 8.33%
18 ppt, 10 d
  % Cell Lysis in 230L reactors: 5.00%
18 ppt, 11 d
  % Cell Lysis in 230L reactors: 1.67%
18 ppt, 12 d
  % Cell Lysis in 230L reactors: 3.33%
230 L reactors, all treatments except 10 ppt
  cell lysis: below 30%
Time 0 d
  Culture Dry Weight in 230L reactors: 0.030 g/L
Time 1 d
  Culture Dry Weight in 230L reactors: 0.042 g/L
Time 2 d
  Culture Dry Weight in 230L reactors: 0.065 g/L
Time 4 d
  Culture Dry Weight in 230L reactors: 0.145 g/L
Time 5 d
  Culture Dry Weight in 230L reactors: 0.228 g/L
Time 6 d
  Culture Dry Weight in 230L reactors: 0.173 g/L
Time 7 d
  Culture Dry Weight in 230L reactors: 0.185 g/L
Time 8 d
  Culture Dry Weight in 230L reactors: 0.273 g/L
Time 9 d
  Culture Dry Weight in 230L reactors: 0.145 g/L
Time 10 d
  Culture Dry Weight in 230L reactors: 0.220 g/L
Time 11 d
  Culture Dry Weight in 230L reactors: 0.145 g/L
